Test results published in patent US20250179061A1 (SIRONAX LTD., priority 2022, published 2025).
pIC50: −log10 of the molar value.

What follows are compounds tested on HT-29 cells (assay: HT-29 necroptosis cell viability assay (TNF-α/SMAC mimetic/zVAD-FMK, CellTiter-Glo)). Conditions: Homo sapiens, HT-29, HT-29 necroptosis cell viability assay; class symbols for IC50; read-out: Activity.
Format: cell-based
In short: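 Necroptosis was triggered by TNF-α (10 ng/ml), SMAC mimetic (6 μM) and zVAD-FMK (10 μM) in serum-free medium during 20 h compound exposure (10 concentrations, threefold steps) of HT-29 cells. IC50 from duplicate dose-responses uses CellTiter-Glo ATP luminescence as viability read-out.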
`Cc1nn(CC2COC2)c(C)c1Oc1ccc(-n2ncn(Cc3c(F)cccc3F)c2=O)cc1F` [Example 179, 4-(2,6-difluorobenzyl)-2-(4-((3,5-dimethyl-1-(oxetan-3-ylmethyl)-1H-pyrazol-4-yl)oxy)-3-fluorophenyl)-2,4-dihydro-3H-1,2,4-triazol-3-one] was tested, and the pIC50 was > 7.00.
For `Cc1nn(CCO)c(C)c1Oc1ccc(-n2ncn(Cc3c(F)cccc3F)c2=O)cc1F` [Example 180, 4-(2,6-difluorobenzyl)-2-(3-fluoro-4-((1-(2-hydroxyethyl)-3,5-dimethyl-1H-pyrazol-4-yl)oxy)phenyl)-2,4-dihydro-3H-1,2,4-triazol-3-one], the pIC50 was > 7.00.
`CCOC(=O)c1nc(Oc2ccc(-n3ncn(Cc4c(F)cccc4F)c3=O)cc2F)n(C)c1C` [Example 181, ethyl 2-(4-(4-(2,6-difluorobenzyl)-5-oxo-4,5-dihydro-1H-1,2,4-triazol-1-yl)-2-fluorophenoxy)-1,5-dimethyl-1H-imidazole-4-carboxylate] showed a pIC50 of 6.00 to 7.00.
With `CCOC(=O)c1c(C)nc(Oc2ccc(-n3ncn(Cc4c(F)cccc4F)c3=O)cc2F)n1C` [Example 182, ethyl 2-(4-(4-(2,6-difluorobenzyl)-5-oxo-4,5-dihydro-1H-1,2,4-triazol-1-yl)-2-fluorophenoxy)-1,4-dimethyl-1H-imidazole-5-carboxylate] the pIC50 was 6.00 to 7.00.
For `CCOC1CN(c2nc(C)c(Oc3ccc(-n4ncn(Cc5c(F)cccc5F)c4=O)cc3)n2C)C1` [Example 183, 4-(2,6-difluorobenzyl)-2-(4-((2-(3-ethoxyazetidin-1-yl)-1,4-dimethyl-1H-imidazol-5-yl)oxy)phenyl)-2,4-dihydro-3H-1,2,4-triazol-3-one], the pIC50 was > 7.00.
With `Cc1nn(Cc2ccc(-n3ncn(Cc4c(F)cccc4F)c3=O)cc2)cc1Br` [Example 184, 2-(4-((4-bromo-3-methyl-1H-pyrazol-1-yl)methyl)phenyl)-4-(2,6-difluorobenzyl)-2,4-dihydro-3H-1,2,4-triazol-3-one] the pIC50 was > 7.00.
`Cc1ncc(C#N)n1Cc1ccc(-n2ncn(Cc3c(F)cccc3F)c2=O)cc1` [Example 185, 1-(4-(4-(2,6-difluorobenzyl)-5-oxo-4,5-dihydro-1H-1,2,4-triazol-1-yl)benzyl)-2-methyl-1H-imidazole-5-carbonitrile] gave a pIC50 of 6.00 to 7.00.
In the case of `Cc1nc(C#N)cn1Cc1ccc(-n2ncn(Cc3c(F)cccc3F)c2=O)cc1` [Example 186, 1-(4-(4-(2,6-difluorobenzyl)-5-oxo-4,5-dihydro-1H-1,2,4-triazol-1-yl)benzyl)-2-methyl-1H-imidazole-4-carbonitrile], the pIC50 was > 7.00.
`Cc1nccn1Cc1ccc(-n2ncn(Cc3c(F)cccc3F)c2=O)cc1` [Example 187, 4-(2,6-difluorobenzyl)-2-(4-((2-methyl-1H-imidazol-1-yl)methyl)phenyl)-2,4-dihydro-3H-1,2,4-triazol-3-one] was tested, and the pIC50 was 6.00 to 7.00.
`Cc1cc(C)n(Cc2ccc(-n3ncn(Cc4c(F)cccc4F)c3=O)cc2)c1` [Example 188, 4-(2,6-difluorobenzyl)-2-(4-((2,4-dimethyl-1H-pyrrol-1-yl)methyl)phenyl)-2,4-dihydro-3H-1,2,4-triazol-3-one] was tested, and the pIC50 was 6.00 to 7.00.
For `Cc1nn(Cc2ccc(-n3ncn(Cc4c(F)cccc4F)c3=O)cc2)c(C)c1C` [Example 189, 4-(2,6-difluorobenzyl)-2-(4-((3,4,5-trimethyl-1H-pyrazol-1-yl)methyl)phenyl)-2,4-dihydro-3H-1,2,4-triazol-3-one], the pIC50 was > 7.00.
For `Cc1nn(Cc2ccc(-n3ncn(Cc4c(F)cccc4F)c3=O)cc2)cc1C#N` [Example 190, 1-(4-(4-(2,6-difluorobenzyl)-5-oxo-4,5-dihydro-1H-1,2,4-triazol-1-yl)benzyl)-3-methyl-1H-pyrazole-4-carbonitrile], the pIC50 was > 7.00.
In the case of `Cc1c(C#N)cnn1Cc1ccc(-n2ncn(Cc3c(F)cccc3F)c2=O)cc1` [Example 191, 1-(4-(4-(2,6-difluorobenzyl)-5-oxo-4,5-dihydro-1H-1,2,4-triazol-1-yl)benzyl)-5-methyl-1H-pyrazole-4-carbonitrile], the pIC50 was > 7.00.
